Data taken from paper PMC2700827 (Journal of the American Chemical Society, 2008).
Read-outs that look alike come from different tables or passages of the source.

Key:
[1] = hydrogen bond acceptor; cited from earlier work
[2] = phenol pKa given in Figure 5 legend, source not given

Row | SMILES | pKa [1] | pKa [2]
1 | O=[N+]([O-])c1cc[n+]([O-])cc1 [4-nitropyridine-N-oxide] | −1.7 | 
2 | Oc1c(F)cc(F)cc1F [2,4,6-F3-phenol] |  | 7.2
